# In US7897602B2, “Indolinone compounds as kinase inhibitors” (Development Center for Biotechnology, priority 2009, dated 2011):
# How the values were obtained:
# Assay type in all cases: biochemical
# [1] = target: T1, c-Met kinase (Homo sapiens, UniProt P08581); assay: c-Met kinase assay (33P incorporation into Poly(Glu-Tyr)); details: 500 nM test compound
# T1 construct: recombinant N-terminal 6×His-tagged c-Met kinase domain construct expressed from baculovirus; 6xHis (N); made in house
# In short: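 Single-concentration test (500 nM compound) at 30° C for 30 min, pH 7.0 MOPS buffer with 100 μM ATP and [33P]-γ-ATP. Enzyme was baculovirus-expressed 6×His c-Met kinase domain (5 ng), substrate Poly(Glu-Tyr) 4:1. Inhibition percentage derived from filter-bound counts relative to DMSO control.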
# [2] = target: T2, Aurora A kinase (Homo sapiens, UniProt O14965); assay: Aurora A kinase assay ([γ-33P]ATP, CHOCKtide substrate); details: 1.0 μM test compound
# T2 construct: purchased Upstate
# T2 sequence (O14965 1-403): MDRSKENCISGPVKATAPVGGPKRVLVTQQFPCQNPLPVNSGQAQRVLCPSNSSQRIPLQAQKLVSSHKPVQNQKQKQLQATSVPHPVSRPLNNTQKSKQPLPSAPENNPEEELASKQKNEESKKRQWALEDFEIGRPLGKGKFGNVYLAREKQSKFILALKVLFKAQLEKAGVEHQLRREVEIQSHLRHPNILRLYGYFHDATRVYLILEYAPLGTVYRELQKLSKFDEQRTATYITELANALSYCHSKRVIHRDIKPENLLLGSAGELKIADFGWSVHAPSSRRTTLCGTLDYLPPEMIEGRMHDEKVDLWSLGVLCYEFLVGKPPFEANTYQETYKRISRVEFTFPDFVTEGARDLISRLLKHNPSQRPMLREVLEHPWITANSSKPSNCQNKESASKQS
# In short: (§1)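 Radiometric filter-binding format: 33P incorporation into CHOCKtide counted after acid stop and filtration. Reactions ran 30 min at 33 °C, Aurora A with 10 μM ATP, Aurora B with 40 μM ATP. IC50 taken as concentration giving half-maximal kinase inhibition.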
# [3] = target: T3, Flt3 kinase (Homo sapiens, UniProt P36888); assay: Flt3 kinase assay (33P incorporation into Poly(Glu-Tyr)); details: 100 nM test compound; read-out: Inhibition at 100 nM (%) Flt-3
# T3 construct: recombinant N-terminal 6×His-tagged Flt3 kinase domain construct expressed from baculovirus; 6xHis (N); made in house
# T3 sequence (P36888 610-943 limits assumed): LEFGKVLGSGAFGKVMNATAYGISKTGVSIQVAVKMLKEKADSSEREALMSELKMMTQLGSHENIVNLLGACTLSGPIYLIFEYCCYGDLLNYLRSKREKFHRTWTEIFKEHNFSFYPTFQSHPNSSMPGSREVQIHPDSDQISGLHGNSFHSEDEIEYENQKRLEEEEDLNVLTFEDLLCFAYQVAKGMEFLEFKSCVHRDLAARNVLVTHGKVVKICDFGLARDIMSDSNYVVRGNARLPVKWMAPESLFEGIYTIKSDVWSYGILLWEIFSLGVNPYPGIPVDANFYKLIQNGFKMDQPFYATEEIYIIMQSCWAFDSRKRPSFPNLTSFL
# Description: Inhibition of Flt3 kinase activity by compounds disclosed herein was quantified by measuring the amount of [^33P] incorporated into the substrate in the presence of a test compound. Briefly, a reaction mixture of 25 μL final volume containing 5 ng of Flt3 kinase (obtained by purifying recombinant N-terminal 6×His-tagged Flt3 kinase domain construct expressed from baculovirus), 5 μg of the substrate (Poly (Glu-Tyr, 4:1, Sigma)), kinase reaction buffer (20 mM MOPS pH 7.0, 1 mM EDTA, 5% glycerol, 0.01% Brij-35, 0.1% β-mercaptoethanol, 1 mg/mL BSA, 100 μM ATP, 0.1 μCi per well [^33P]-γ-ATP (2,500-3,000 Ci/mmol)), and a test compound (100 nM, diluted with 4% DMSO) or DMSO (as the control) was incubated at 30° C. for 30 minutes. The reaction was stopped by adding 5 μL of 3% phosphoric acid solution. The resultant reaction solution was then harvested onto a filter plate (UniFilter-96 GF/B, PerkinElmer), washed 20 times for 5 min with d.d. H2O, and followed by the addition of 30 μL of MicroScint™-20 Cocktail (PerkinElmer). The plate was then sealed and counted using a TopCount scintillation detector (PerkinElmer). The percentage of inhibition rate of the test compound was calculated by dividing the retained radioactivity of the test sample with the retained radioactivity of the control sample and shown in Table 3.
# [4] = target: T4, Aurora B kinase (Homo sapiens, UniProt Q96GD4); assay: Aurora B kinase assay ([γ-33P]ATP, CHOCKtide substrate); details: 1.0 μM test compound
# T4 construct: purchased Cell signaling
# T4 sequence (Q96GD4 whole entry): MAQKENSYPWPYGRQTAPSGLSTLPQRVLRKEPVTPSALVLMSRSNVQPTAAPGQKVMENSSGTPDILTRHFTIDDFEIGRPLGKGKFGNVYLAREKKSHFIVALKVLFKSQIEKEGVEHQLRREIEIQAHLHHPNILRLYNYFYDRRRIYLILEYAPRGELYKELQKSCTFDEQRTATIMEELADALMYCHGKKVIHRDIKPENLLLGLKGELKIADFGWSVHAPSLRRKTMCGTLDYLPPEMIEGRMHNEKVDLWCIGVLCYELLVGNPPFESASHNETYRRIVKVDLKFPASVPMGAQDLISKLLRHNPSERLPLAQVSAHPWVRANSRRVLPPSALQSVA
# In short: as §1
# [5] = target: T5, VEGFR2 kinase (Homo sapiens, UniProt P35968); assay: VEGFR2 kinase assay (33P incorporation into Poly(Glu-Tyr)); details: 500 nM test compound; read-out: Inhibition at 500 nM (%) VEGFr-2
# T5 construct: recombinant N-terminal 6×His-tagged VEGFR2 kinase domain construct expressed by baculovirus; 6xHis (N); made in house
# T5 sequence (P35968 834-1162 limits assumed): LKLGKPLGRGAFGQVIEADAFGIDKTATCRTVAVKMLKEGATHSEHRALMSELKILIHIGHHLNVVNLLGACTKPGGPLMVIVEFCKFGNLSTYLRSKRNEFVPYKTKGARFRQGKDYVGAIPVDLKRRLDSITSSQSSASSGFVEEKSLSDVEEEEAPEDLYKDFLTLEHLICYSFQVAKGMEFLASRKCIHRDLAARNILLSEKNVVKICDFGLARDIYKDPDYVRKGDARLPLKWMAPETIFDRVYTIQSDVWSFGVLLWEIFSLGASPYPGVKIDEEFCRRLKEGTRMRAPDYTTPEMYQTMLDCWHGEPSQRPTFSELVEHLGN
# Description: Inhibition of VEGFR2 kinase activity by compounds disclosed herein was quantified by measuring the amount of [^33P] incorporated into the substrate in the presence of a test compound. Specifically, a reaction mixture with a final volume of 25 μL and containing 6.25 ng of VEGFR2 kinase (obtained by purifying recombinant N-terminal 6×His-tagged VEGFR2 kinase domain construct expressed by baculovirus), 5 μg of substrate (Poly (Glu-Tyr, 4:1, Sigma)), kinase reaction buffer (20 mM MOPS pH 7.0, 1 mM EDTA, 5% glycerol, 0.01% Brij-35, 0.1% β-mercaptoethanol, 1 mg/mL BSA, 100 μM ATP, 0.1 μCi per well [^33P]-γ-ATP (2,500-3,000 Ci/mmol), and 500 nM test compound (final concentration of DMSO was 4%) or 4% DMSO alone (as the control sample), was incubated at 30° C. for 30 minutes. The reaction was then stopped by adding 5 μL of 3% phosphoric acid solution. The resultant solution was transferred to and harvested by a filter plate (UniFilter-96 GF/B, PerkinElmer). The filter plate was then washed 20 times with d.d. H2O for 5 min followed by the addition of 30 μL of MicroScint™-20 Cocktail (PerkinElmer). After the plate was sealed, the retained radioactivity on the filter was counted using a TopCount scintillation detector (PerkinElmer). The percentage of inhibition rate of the test compound was calculated by dividing the retained radioactivity of the test sample with the retained radioactivity of the control sample and shown in Table 3.
# [6] = target: T6, PDGFR-β kinase (Homo sapiens, UniProt P09619); assay: PDGFR-β kinase assay (33P incorporation into Poly(Glu-Tyr)); details: 500 nM test compound
# T6 construct: recombinant N-terminal 6×His-tagged PDGFR-β kinase domain construct expressed by baculovirus; 6xHis (N); made in house
# T6 sequence (P09619 600-962 limits assumed): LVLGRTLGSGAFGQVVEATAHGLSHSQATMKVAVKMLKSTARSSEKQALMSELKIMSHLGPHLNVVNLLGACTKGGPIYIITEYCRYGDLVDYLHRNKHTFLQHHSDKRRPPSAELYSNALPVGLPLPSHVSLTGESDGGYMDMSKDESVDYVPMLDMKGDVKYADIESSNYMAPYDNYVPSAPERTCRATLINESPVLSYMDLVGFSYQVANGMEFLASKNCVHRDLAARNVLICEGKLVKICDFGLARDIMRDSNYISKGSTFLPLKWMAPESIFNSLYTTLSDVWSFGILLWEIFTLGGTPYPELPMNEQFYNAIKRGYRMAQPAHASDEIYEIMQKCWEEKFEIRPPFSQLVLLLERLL
# Description: Inhibition of PDGFR-β kinase activity by compounds disclosed herein was quantified by measuring the amount of [^33P] incorporated into the substrate in the presence of a test compound. Briefly, a reaction mixture of 25 μL final volume containing 55 ng of PDGFR-β kinase (obtained by purifying recombinant N-terminal 6×His-tagged PDGFR-β kinase domain construct expressed by baculovirus), 2.5 μg of the substrate (Poly (Glu-Tyr, 4:1, Sigma)), kinase reaction buffer (20 mM MOPS pH 7.0, 1 mM EDTA, 5% glycerol, 0.01% Brij-35, 0.1% β-mercaptoethanol, 1 mg/mL BSA, 2 mM MnCl2, 30 μM ATP, 0.1 μCi per well [^33P]-γ-ATP (2,500-3,000 Ci/mmol)), and a test compound (500 nM, diluted with 4% DMSO) or DMSO (as the control) was incubated at 30° C. for 30 minutes. The reaction was stopped by adding 5 μL of 3% phosphoric acid solution. The resultant reaction solution was then harvested onto a filter plate (UniFilter-96 GF/B, PerkinElmer), washed 20 times for 5 min with d.d. H2O, and followed by the addition of 30 μL of MicroScint™-20 Cocktail (PerkinElmer). The plate was then sealed and counted using a TopCount scintillation detector (PerkinElmer). The percentage of inhibition rate of the test compound was calculated by dividing the retained radioactivity of the test sample with the retained radioactivity of the control sample and shown in Table 3.
# T1 sequence (P08581 1078-1345 limits assumed): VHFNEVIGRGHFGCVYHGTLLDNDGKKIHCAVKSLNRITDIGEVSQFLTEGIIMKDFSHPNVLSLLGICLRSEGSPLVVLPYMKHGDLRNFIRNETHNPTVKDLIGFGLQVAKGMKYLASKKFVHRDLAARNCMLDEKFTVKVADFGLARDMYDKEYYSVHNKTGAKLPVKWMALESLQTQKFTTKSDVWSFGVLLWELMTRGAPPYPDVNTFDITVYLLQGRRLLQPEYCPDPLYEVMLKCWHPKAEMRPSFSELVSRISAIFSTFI
Structure (SMILES),inhibition at 0.5 µM [1],inhibition at 1 µM [2],inhibition at 0.1 µM [3],inhibition at 1 µM [4],inhibition at 0.5 µM [5],inhibition at 0.5 µM [6]
"O=C(O)CCc1c(/C=C2\C(=O)Nc3cc(-c4ccc(O)cc4)ccc32)[nH]c2c1C(=O)CCCC2 [DCB-70151, (Z)-3-(2-((6-(4-hydroxyphenyl)-2-oxoindolin-3-ylidene)methyl)-4-oxo-1,4,5,6,7,8-hexahydrocyclohepta[b]pyrrol-3-yl)propanoic acid]",-6.5%,37.2%,42.2%,23.6%,,
"CCOC(=O)CCc1c(/C=C2\C(=O)Nc3cc(-c4ccc(O)cc4)ccc32)[nH]c2c1C(=O)CCCC2 [DCB-70150, (Z)-ethyl 3-(2-((6-(4-hydroxyphenyl)-2-oxoindolin-3-ylidene)methyl)-4-oxo-1,4,5,6,7,8-hexahydrocyclohepta[b]pyrrol-3-yl)propanoate]",0.2%,8.9%,17.1%,18%,,
"O=C(O)CCc1c(/C=C2\C(=O)Nc3ccc(NC(=O)c4ccc([N+](=O)[O-])cc4)cc32)[nH]c2c1C(=O)CCC2 [DCB-70142, (Z)-3-(2-((5-(4-nitrobenzamido)-2-oxoindolin-3-ylidene)methyl)-4-oxo-4,5,6,7-tetrahydro-1H-indol-3-yl)propanoic acid]",,27.1%,11.8%,2.4%,44.8%,7.9%
